Literature values as cited in patent US5315013A, “Substituted pyrazole angiotensin II antagonists” (E. I. Du Pont de Nemours and Company, priority 1992, dated 1994).

Key:
[1] = tested on: AII
[2] = tested on: arterial pressure

SMILES: CNCC(=O)N[C@@H](CCCN=C(N)N)C(=O)N[C@H](C(=O)N[C@@H](Cc1ccc(O)cc1)C(=O)N[C@H](C(=O)N[C@@H](Cc1cnc[nH]1)C(=O)N1CCC[C@H]1C(=O)N[C@@H](C)C(=O)O)C(C)C)C(C)C [Saralasin]
- effects of AII on the blood pressure blocked ([1]; pithed rats): blocks the effects of AII on the blood pressure of pithed rats
- competitive antagonism of the actions of AII ([1]; potency in words): one of the most potent competitive antagonists of the actions of AII
- lowering of arterial pressure ([2]; mammals and man, elevated pressure dependent on circulating AII): demonstrated to lower arterial pressure in mammals and man
- effect of oral doses ([2]; oral): oral doses being ineffective
- pressor effects (agonistic character) ([2]; pressure not sustained by AII): generally elicits pressor effects when the pressure is not sustained by AII
